Measured values from publication PMC8397634 (Journal of Natural Medicines, 2021).
Where “and” joins values, the source holds several entries; their conditions need not be identical. Equal entries are not always repeated. Entries after “also recorded” stand apart in the source; their conditions may differ. Where two headings read alike, the source gives them in different places.

Experiments:
[1] = biological target: T1, muscle-type nAChR (Homo sapiens, UniProt P02708+P07510+Q07001); experiment: Muscle-type nAChR radioligand binding (target profiling); conditions: 10 µM single concentration; effect greater than 50% considered significant
T1 construct: TE671 cells; host or cells: TE671 cells (endogenous)
Description: (§1) All binding and functional assays for molecular target characterization were conducted by Eurofins Cerep SA (Celle-Lévescault, France) and Eurofins Panlabs Discovery Services Taiwan, Ltd. (New Taipei City, Taiwan) using their standard in vitro binding and functional assays (Online Source 2). The radioligand displacement binding assays employed the gold-standard filtration method using membrane preparations from stable cell lines expressing human or rodent target proteins to determine the interaction of the compounds with specific receptors, channels, and transporters. For this purpose, the competitive binding of test compounds against a [^125I]-, [^3H]-, or [^35S]-labeled agonist and/or antagonist was determined. The specific list of radiolabeled ligands and experimental conditions are summarized in Online Source 2. A single concentration of each compound (10 µM in 0.1% DMSO) was used for the screen. […] Negative values were considered to be an artifact arising from, for example, compounds interfering with the assay readout.
(§2) Assay Source Ligand Conc. Kd Non Specific Incubation Detection Bibl.

[2] = biological target: T2, α4β2 nAChRs (Homo sapiens, UniProt P17787+P43681); experiment: In vitro α4β2 nAChR radioligand displacement binding assay; parameters: host or cells: SH-SY5Y cells (human recombinant), membrane preparation; conditions: for Binding to α4β2 nAChR in target profiling: 10 µM single concentration, effect greater than 50% considered significant
Description: as §1, §2

[3] = system: other molecular targets (175 in vitro binding and enzymatic assays); experiment: In vitro molecular target profiling (175 binding and enzymatic assays); conditions: 10 µM single concentration; 175 assays; effect greater than 50% considered significant
Description: as §1
3.1. Experimental Conditions
In Vitro Pharmacology: Binding Assays
as §2

[4] = system: α7 nAChR; conditions: cited from earlier work; for α7 nAChR agonist activity: ref 2 (Alijevic, et al.)
[5] = Brain bioavailability assay in zebrafish (UPLC-HRMS of brain homogenate); assay type: in vivo, Danio rerio; conditions: zebrafish brain after 20-min exposure, linear relationship assumed, mean ± SEM; for concentration at 20 min: both sexes, zebrafish (Danio rerio), 1 mg/L, read-out: Relative brain level per 1 mg/L compound
Description: Four fish (2 males and 2 females) per compound were used to determine the brain bioavailability of the compounds. Immediately after the 20-min compound treatment, the zebrafish were rinsed briefly to remove excessive compound on their body and terminated with 250 mg/L tricaine (CAS No. 886-86-2; Sigma). The fish were decapitated at the level of the gills using a surgical knife. The head was turned dorsal side down, and soft tissue was removed from the ventral side of the skull until the base of the skull was exposed. The skull was broken open and the bone from the ventral side of the brain was removed. The brain was then placed in a microcentrifuge tube, weighed, snap-frozen in liquid nitrogen, and stored at – 80 °C until the analysis.
Briefly, on the day of analysis, the brain samples were defrosted, resuspended in a methanol solution (2:1 [v/v] methanol:MilliQ water), and homogenized with vigorous agitation and ultrasonication (5 min each). The homogenate was centrifuged at 15,000 × rpm for 10 min, and the supernatant was analyzed using a UPLC-Q Exactive Orbitrap-HRMS system (Thermo Fisher Scientific™, Bremen, Germany). Chromatographic separation was achieved on a Synergi™ 4-µm Hydro-RP 80 Å, L.C. Column (250 × 4.6 mm; Phenomenex Inc., Torrance, CA, USA) with 0.1% formic acid in water (mobile phase A) and 0.1% formic acid in acetonitrile (mobile phase B). A gradient method at a 500 µL/min flow rate was applied as follows: (1) 5% B for 1 min, and (2) increase to 95% B over 7 min and hold for 2 min. The injection volume was 5 μL. The mass spectrometer was operated in electrospray positive mode (ESI, Thermo Fisher Scientific), while data acquisition was performed using the parallel reaction monitoring (PRM) and full scan modes. The source settings were set as follows: sheath gas flow rate = 60 psi; aux gas flow rate = 20 arbitrary units; spray voltage = 3.5 kV; capillary temperature = 280 °C; and sweep gas flow rate = 1. The full scan mode parameters were set as follows: resolution = 35,000 FWHM at 200 m/z; AGC target = 1E6; maximum injection time = 110 ms; and scan range = 100–350 m/z. The chromatographic and Orbitrap MS parameters for PRM analysis were the same as those in the full scan mode, except for: AGC target = 2E5; maximum IT = 60 ms; and resolution = 17,500 FWHM at 200 m/z. The XCalibur™ v4.0.27.19 software (Thermo Fisher Scientific) and TraceFinder™ v4.1 Forensic (Thermo Fisher Scientific, San José, CA, USA) were used for system control and data processing, respectively. The Q Exactive 2.8 SP 1 software (Thermo Fisher Scientific) was used to control the mass spectrometer.

[6] = system: zebrafish (Danio rerio; strain AB); conditions: for Time spent at the bottom of the tank during NTT / anxiolytic-like effect: 30 mg/L
Description: The NTT conditions closely matched the most commonly used conditions described by. In brief, adult male and female wild-type zebrafish were treated with the compounds for 20 min in a final volume of 50 mL in a 250-mL treatment beaker, one fish at a time. The fish were briefly rinsed in fresh system water, and then immediately transferred to a trapezoidal tank (14.6-cm height × 5.5-cm width × 27.9-cm top length and × 23.6-cm bottom length) filled with 1.5 L system water. The behavior of the fish was monitored for the next 5 min using the Noldus EthoVision XT system (Wageningen, Netherlands), with the camera placed approximately 1 m from the test tank. The tanks were uniformly illuminated from above at approximately 200 lx, reported to be the optimal illumination condition for NTT [23]. Background noise was kept at a minimum during the test. All experimental parameters were monitored closely and kept as consistent as possible throughout the study. The part of the tank filled with water (11.5-cm height) was virtually divided into top, center, and bottom of equal heights (approximately 3.8 cm per segment) for the analyses. The average time spent at the top and bottom portions of the tank was analyzed to determine the anxiety-like behavior of fish. The average total distance traveled and freezing time (as defined by a complete cessation of movement except for gills and eyes) were calculated to determine the effects of the compounds on the general behavior of fish. The analyses were conducted for 1-min time bins. To account for any day-to-day variability in fish behavior, fish treated with vehicle were tested on the same day as the compounds. […] A minimum of 12 fish (6 females and 6 males) per condition were used for the study. The actual sample size per condition is indicated in Online Resource 1. […] The experimenters were blind to the test conditions. The NTT was validated with buspirone, a clinical anxiolytic drug, as previously described.
If not, the concentration was reduced until no obvious signs of tolerability problems were observed. […] The concentrations were calculated based on the free base molecular weight.
Two-way repeated measures analysis of variance (ANOVA) with Dunnett post hoc was used for the 1-min binned analysis of the zebrafish NTT data. Treatment was one factor, and time was the second factor. […] Thus, male and female datasets were combined for the final analyses. […] The EC50 values were determined by applying the nonlinear regression analysis. All analyses were conducted using GraphPad Prism v8.2.1 (GraphPad Software, San Diego, CA, USA).

[7] = biological target: T2, α4β2 nAChRs; experiment: In vitro nAChR functional assay (automated patch-clamp, CHO cells); assay type: cell-based; conditions: for Emax: CHO, read-out: % activation of α4β2 nAChR (normalized to nicotine)
Description: Electrophysiological responses were recorded using an automated patch-clamp Patchliner Octo® system (Nanion Technologies, Munich, Germany) equipped with two EPC-10 Quadro patch-clamp amplifiers (HEKA Elektronik, Lambrecht, Germany) as described previously. Chinese hamster ovarian (CHO) cells stably expressing human α4β2 nAChRs (Charles River Laboratories, Wilmington, MA, USA) were used. All experiments were performed at room temperature (24 °C) and repeated at least three times. Data were analyzed using Patchmaster software (HEKA Elektronik). Offline data analysis was performed in Apache OpenOffice™ (v4.1.2; […]). Igor Pro software (v6.2.2.2; WaveMetrics, Lake Oswego, OR, USA) was used to determine EC50 values. […] The average values were then fitted to the Hill equation: I=Baseline+X^∧nH(Imax-Baseline)/X^∧nH+EC50^∧nH, where I is the current response, Baseline is the minimal current response, X is the agonist concentration, nH is the Hill coefficient, Imax is the maximal current, and EC50 is the agonist concentration producing half-maximal activation. […]

[8] = highest concentration tested (10 mg/L), 20-min treatment
[9] = other: immersion in compound solution (waterborne exposure)
[10] = CHO cells stably expressing human α4β2 nAChRs, patch clamp, 24 °C, mean ± SEM (Fig. 1), read-out: α4β2 nAChR EC50
[11] = all concentrations tested, 20-min treatment, 5-min test, vs vehicle control

T2 sequence (P43681 29-627 limits assumed): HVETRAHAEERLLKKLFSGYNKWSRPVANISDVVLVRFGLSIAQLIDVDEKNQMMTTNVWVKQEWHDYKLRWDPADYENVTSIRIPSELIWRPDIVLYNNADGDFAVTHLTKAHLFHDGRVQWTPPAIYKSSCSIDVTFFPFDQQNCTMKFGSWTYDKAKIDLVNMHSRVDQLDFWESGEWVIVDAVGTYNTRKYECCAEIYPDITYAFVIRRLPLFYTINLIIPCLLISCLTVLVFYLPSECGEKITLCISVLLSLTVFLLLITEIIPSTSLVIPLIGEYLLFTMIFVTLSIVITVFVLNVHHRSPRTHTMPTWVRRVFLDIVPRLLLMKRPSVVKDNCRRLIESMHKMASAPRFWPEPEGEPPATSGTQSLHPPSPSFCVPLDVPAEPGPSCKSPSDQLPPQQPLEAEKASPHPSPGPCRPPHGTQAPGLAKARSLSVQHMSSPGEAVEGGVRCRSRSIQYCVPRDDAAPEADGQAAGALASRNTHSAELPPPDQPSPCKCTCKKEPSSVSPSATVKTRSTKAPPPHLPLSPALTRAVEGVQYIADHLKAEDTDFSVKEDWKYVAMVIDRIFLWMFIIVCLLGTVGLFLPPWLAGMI
T2 sequence (P17787 26-502): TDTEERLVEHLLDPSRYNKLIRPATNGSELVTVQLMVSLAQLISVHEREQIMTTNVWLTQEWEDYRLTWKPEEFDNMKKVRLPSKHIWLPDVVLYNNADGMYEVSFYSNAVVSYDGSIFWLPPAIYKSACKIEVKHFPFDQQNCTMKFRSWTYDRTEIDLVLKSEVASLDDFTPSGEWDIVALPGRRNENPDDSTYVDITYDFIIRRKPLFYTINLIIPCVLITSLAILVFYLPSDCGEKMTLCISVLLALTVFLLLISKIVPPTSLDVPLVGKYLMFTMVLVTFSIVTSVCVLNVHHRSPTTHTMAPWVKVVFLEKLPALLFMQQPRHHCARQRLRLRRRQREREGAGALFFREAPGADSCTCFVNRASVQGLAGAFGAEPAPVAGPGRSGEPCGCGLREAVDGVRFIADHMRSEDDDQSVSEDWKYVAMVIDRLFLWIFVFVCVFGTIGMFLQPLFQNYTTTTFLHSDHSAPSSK
T1 sequence (P02708 21-457): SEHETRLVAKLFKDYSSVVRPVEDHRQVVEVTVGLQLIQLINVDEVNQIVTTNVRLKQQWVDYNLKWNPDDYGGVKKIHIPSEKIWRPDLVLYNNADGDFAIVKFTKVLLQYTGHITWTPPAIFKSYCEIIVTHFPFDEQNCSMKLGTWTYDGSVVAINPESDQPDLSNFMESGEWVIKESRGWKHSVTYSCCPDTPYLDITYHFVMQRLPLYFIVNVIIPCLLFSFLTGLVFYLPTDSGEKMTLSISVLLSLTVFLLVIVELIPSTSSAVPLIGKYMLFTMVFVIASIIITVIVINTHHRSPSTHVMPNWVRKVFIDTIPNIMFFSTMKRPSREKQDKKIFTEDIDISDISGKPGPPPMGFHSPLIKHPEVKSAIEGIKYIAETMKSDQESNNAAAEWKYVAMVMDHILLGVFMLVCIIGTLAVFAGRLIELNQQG
T1 sequence (Q07001 22-517): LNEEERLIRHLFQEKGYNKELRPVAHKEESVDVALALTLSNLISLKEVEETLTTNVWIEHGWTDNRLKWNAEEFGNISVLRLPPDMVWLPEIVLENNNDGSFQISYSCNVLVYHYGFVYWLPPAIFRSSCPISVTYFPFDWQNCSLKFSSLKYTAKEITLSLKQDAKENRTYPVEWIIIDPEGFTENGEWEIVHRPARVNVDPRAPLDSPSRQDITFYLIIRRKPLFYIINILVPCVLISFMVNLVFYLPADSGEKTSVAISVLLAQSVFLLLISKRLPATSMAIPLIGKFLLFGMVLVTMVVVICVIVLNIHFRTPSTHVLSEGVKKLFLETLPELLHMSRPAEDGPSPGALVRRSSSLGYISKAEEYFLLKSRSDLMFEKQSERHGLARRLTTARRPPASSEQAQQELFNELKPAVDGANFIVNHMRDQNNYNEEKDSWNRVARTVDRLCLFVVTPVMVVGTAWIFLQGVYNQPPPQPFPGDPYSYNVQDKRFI
T1 sequence (P07510 23-517): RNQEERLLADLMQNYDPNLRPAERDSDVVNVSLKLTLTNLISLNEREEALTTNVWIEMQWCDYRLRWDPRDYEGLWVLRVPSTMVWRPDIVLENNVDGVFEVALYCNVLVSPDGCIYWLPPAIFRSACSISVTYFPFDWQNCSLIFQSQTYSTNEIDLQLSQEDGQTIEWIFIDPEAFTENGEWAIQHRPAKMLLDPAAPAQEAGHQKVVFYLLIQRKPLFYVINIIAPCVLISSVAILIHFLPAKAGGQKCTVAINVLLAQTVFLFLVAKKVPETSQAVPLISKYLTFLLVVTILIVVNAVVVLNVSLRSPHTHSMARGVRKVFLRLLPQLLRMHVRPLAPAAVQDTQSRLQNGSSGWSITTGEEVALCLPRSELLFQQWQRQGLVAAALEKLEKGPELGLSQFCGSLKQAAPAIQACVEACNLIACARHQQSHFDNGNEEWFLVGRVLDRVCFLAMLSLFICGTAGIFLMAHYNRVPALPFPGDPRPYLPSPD

C1=CCC(c2cccnc2)NC1 (racemic) [Anatabine, ( ±)-Anatabine]
Binding to muscle-type nAChR in target profiling [1]: specific binding
Binding to α4β2 nAChR in target profiling [2]: specific binding
Binding to or regulation of other molecular targets [3]: did not bind or regulate the activities of other molecular targets
α7 nAChR agonist activity [4]: weak α7 nAChR agonist
concentration at 20 min ([5]; in vivo): 440 ± 150 ng/g
Freezing time during NTT ([6]; 0.3 mg/L): increased the freezing time during the first 3 min
Concentration effective in reducing anxiety-like behavior in NTT ([6]; 20-min treatment): 10 mg/L
Time spent at the bottom of the tank during NTT [6, 8]: significantly decreased the time spent at the bottom
Total distance traveled during NTT ([6]; lowest (0.3 mg/L) and highest (10 mg/L) concentrations): slight but significant reduction in the total distance traveled
Emax [7]: 80%

CN1C(=O)CC[C@H]1c1cccnc1 [Cotinine, (–)-cotinine]
Binding to muscle-type nAChR in target profiling [1]: specific binding
Binding to α4β2 nAChR in target profiling [2]: specific binding
IC50 ([2]; n = 3, read-out: α4β2 nAChR IC50 (binding)): 9.9 µM
Binding to or regulation of other molecular targets [3]: did not bind or regulate the activities of other molecular targets
concentration at 20 min [5, 9]: 20 ± 10 ng/g
Relative brain level per 1 mg/L compound [5]: less than 0.1 ng/mg tissue
Time spent at the bottom of the tank during NTT ([6]; 100 mg/L, 20-min treatment): reduced the overall time spent at the bottom
Concentration needed for anxiolytic-like effect relative to nicotine ([6]; NTT): > 300 fold
EC50 [7, 10]: 85.3 µM
Emax [7]: 59%

O=C1CC2(CCCC2)CC(=O)N1CCCCN1CCN(c2ncccn2)CC1 [Buspirone, buspirone, reference compound]
Time spent at the bottom of the tank during NTT / anxiolytic-like effect ([6]; 20-min treatment): consistent anxiolytic-like effect across all time points
Freezing response during NTT ([6]; 100 mg/L): increased the freezing response at 1, 2, and 5 min
Total distance traveled during NTT ([6]; 100 mg/L): reduced the total distance traveled at 1, 4, and 5 min
Time spent at the bottom of the tank during NTT [6, 11]: either reduced the time spent on the bottom or increased the time spent on the top at multiple time points

c1cncc([C@@H]2CCCCN2)c1 [Anabasine, ( +)-Anabasine]
α7 nAChR activation relative to maximum receptor activation by nicotine or anatabine [4]: approximately a third
α7 nAChR agonist activity [4]: weak α7 nAChR agonist
concentration at 20 min ([5]; in vivo): 230 ± 70 ng/g
Time spent at the bottom of the tank during NTT [6, 11]: no significant effect
Emax [7]: 7%
effectiveness in activating α4β2 nAChRs in vitro ([7]; preliminary data): 8 ± 4%
EC50 ([7]; α4β2 nAChR EC50, CHO cells stably expressing human α4β2 nAChRs, patch clamp, 24 °C, mean ± SEM (Fig. 1)): < 8 µM and 0.9 µM

CC(=O)OCC[N+](C)(C)C [Acetylcholine, reference compound]
concentration at 20 min [5, 9]: 20 ± 10 ng/g
Time spent at the bottom of the tank during NTT [6, 11]: no effect
% activation of α4β2 nAChR (normalized to nicotine) [7]: 100%

c1cnc2cc3c(cc2n1)[C@@H]1CNC[C@H]3C1 [Varenicline, reference compound]
concentration at 20 min [5, 9]: 450 ± 160 ng/g

O=C(c1ccc(Cl)o1)N1CC2CNCC2C1 (stereo not drawn) [AZD1446, 3-(5-chloro-2-furoyl)-3,7-diazabicyclo[3.3.0]octane, reference compound]
Relative brain level per 1 mg/L compound [5]: could not be detected; also recorded: at the limit of detection; also recorded: No value^d
Time spent at the bottom of the tank during NTT / anxiolytic-like effect ([6]; 20-min treatment): decreased the time spent at the bottom at 2 and 4 min
Time spent at the bottom of the tank during NTT ([6]; 100 mg/L, 20-min treatment): decreased the time spent at the bottom for the first 2 min
Time spent at the top of the tank during NTT ([6]; 30 and 100 mg/L, 20-min treatment): increased the time spent at the top
Size of the reduction of anxiety-like behavior in NTT ([6]; lower two concentrations (30 and 100 mg/L)): ~ 10%
EC50 [7, 10]: 7.9 µM and < 8 µM
Emax [7]: 100%

CNCC/C=C/c1cccnc1 [Metanicotine, metanicotine]
concentration at 20 min ([5]; in vivo): 70 ± 10 ng/g
Relative brain level per 1 mg/L compound [5]: less than 0.1 ng/mg tissue
Time spent at the bottom of the tank during NTT [6, 11]: no significant effect
Emax [7]: 100%
EC50 ([7]; α4β2 nAChR EC50): 19.5 ± 6.4 µM

CN1CC=CC[C@H]1c1cccnc1 [Methylanatabine, (S)-N-methylanatabine]
IC50 [2]: 0.891 µM
concentration at 20 min ([5]; in vivo): 1390 ± 560 ng/g
Relative brain level per 1 mg/L compound [5]: ~1 ng/mg tissue
Concentration effective in reducing anxiety-like behavior in NTT ([6]; 20-min treatment): 10 mg/L
Time spent at the bottom of the tank during NTT [6, 8]: anxiolytic-like effect
EC50 [7, 10]: < 8 µM
Emax [7]: 26%
EC50 ([7]; α4β2 nAChR EC50): 6.2 µM

( ±)-nornicotine
Time spent at the bottom of the tank during NTT [6, 11]: no significant effect
% activation of α4β2 nAChR (normalized to nicotine) [7]: 44%
